Structures can show the parent of a compound that is named as a salt.
test system: urine-derived renal epithelial cells; assay: AP staining of iPSC clones after induction culture (efficiency of AP positive clones); assay type: cell-based, human; details: Example 5, FIG. 11-12
Protocol: 1. The procedure for AP staining is as follows,
a) Aspirate and remove the growth medium from the cultures to be stained when the cell culture is finished, wash the culture with 1×PBS one time; Fix the cells with 4% paraformaldehyde at room temperature for 2 min;
b) Aspirate the fixing solution, wash the culture with 1×TBST for 3 times; Balance with AP buffer at room temperature for 5 min;
c) Chromogenic reaction was performed with AP chromogenic reagent at room temperature in dark for 15 min (5-15 min, terminated when the color of clones became darker and without background, increase the reaction time appropriately if the clones were not stained). The chromogenic reagent was aspirated, cells were washed with 1×PBS for two times, covered with an appropriate amount of 1×PBS, observed and counted under a microscope.
Alkaline phosphatase (AP) is a phosphomonoesterase. The alkaline phosphatase in the cytoplasm can hydrolyze sodium naphthol phosphate to produce α-naphthol in alkaline environments. The latter reacts with a stable azo salt and presents a deep purple color, which the presence of alkaline phosphatase and the abundance of expression could be determined accordingly. Alkaline phosphatase is highly expressed in undifferentiated pluripotent stem cells, and the activity of alkaline phosphatase in the differentiated pluripotent stem cells is decreased. Therefore, whether the cells are clones of iPSCs could be determined by alkaline phosphatase staining (AP staining). And, thus the efficiency of iPSCs production can be easily judged according to the efficiency of AP positive clones.
In Example 1-2 and 4-6, the efficiency of AP positive clones was determined based on the number of cells in each group after electroporation transformation, ie the efficiency of AP positive clones=number of AP positive clones/number of passaged cells per well after electroporation in each group;
In Example 3 and 7-10, the efficiency of AP positive clones was determined based on the total number of cells after electroporation transformation, i.e. the efficiency of AP positive clones=number of AP positive clones/total number of cells after electroporation transformation.
a) Electroporation transformation: The recombinant plasmids obtained in step 1) were added into the culture of renal epithelial cells after digestion with trypsin, and then transferred into the renal epithelial cells. […]
b) Induction culture: 1-3 days after Step 1), or when the cells reached a confluence of 30% or more, the culture medium of pluripotent stem cell was used to continue induction culture. About 15-30 days after the mature of iPSCs clones, the positive clones of iPSCs were identified by AP staining, and the efficiency of AP positive clones was calculated accordingly;

Compared with `Cc1c[nH]c(-c2cnc(NCCNc3ccc(C#N)cn3)nc2-c2ccc(Cl)cc2Cl)n1` [CHIR-99021], `O=C(NOC[C@H](O)CO)c1ccc(F)c(F)c1Nc1ccc(I)cc1F` [PD0325901] is 6-fold lower in “preferable concentration (AP staining)” value: 3 µM for the first, 0.5 µM for the second.

First: N[C@@H]1C[C@H]1c1ccccc1 [tranylcypromine hydrochloride, Tranylcypromine hydrochloride]
Second: CCCC(=O)[O-].[Na+] [sodium butyrate, Sodium Butyrate]
The “preferable concentration (AP staining)” value of the first is 120-fold lower: 2 µM for the first, 250 µM for the second.
